Laboratory results taken from patent US6410585B1, “Inhibitors of protein tyrosine phosphatase” (priority 1997, dated 2002).
Where two headings read alike, the source gives them in different places.

Target: T1, rat PTP1 (Rattus norvegicus, UniProt P20417)
T1 construct: a C-terminal truncation of rat PTP1 (amino acid residues 1-322); GST (N, cleaved yes); made in house; host or cells: E. coli strain TG-1 (pGEX-2T)
T1 sequence (P20417 1-322): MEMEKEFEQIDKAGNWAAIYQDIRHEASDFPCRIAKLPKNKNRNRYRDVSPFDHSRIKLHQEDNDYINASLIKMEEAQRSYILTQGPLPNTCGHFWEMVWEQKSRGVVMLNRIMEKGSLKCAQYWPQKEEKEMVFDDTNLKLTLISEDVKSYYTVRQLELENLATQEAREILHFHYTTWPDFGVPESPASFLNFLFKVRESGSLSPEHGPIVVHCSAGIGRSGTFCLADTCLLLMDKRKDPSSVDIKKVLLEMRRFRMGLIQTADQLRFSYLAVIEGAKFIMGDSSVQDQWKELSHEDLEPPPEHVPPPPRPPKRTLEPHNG
Assay: PTP1 assay, pNPP hydrolysis (rate of change in A405)
Format: biochemical
Settings: for Ki: calculated from IC50-values obtained from a dose-response curve using the inhibition assay
Text: PTP1 Assays: A construct, which consisted of a C-terminal truncation of rat PTP1 (amino acid residues 1-322) (cloned from a rat brain library) with an N-terminal glutathione S-transferase (GST) tag and an adjacent thrombin cleavage site, was inserted into vector plasmid pGEX-2T and transformed into E. coli strain TG-1 under the control of a lac promoter (K. L. Guan and J. E. Dixon (1991) Eukaryotic proteins expressed in Escherichia coli: an improved thrombin cleavage and purification procedure of fusion proteins with glutathione S-transferase. Analyt. Biochem. 192: 262-267). The GST-fusion protein was purified on a glutathione agarose affinity column, the GST tag was cleaved with thrombin, and the active enzyme was recovered for use in an assay to identify PTP inhibitors.
PTP1 activity is measured using either p-nitrophenol phosphate (pNPP) or a triphosphopeptide (that matches residues 1142 through 1153 of the β-subunit and the insulin receptor) as substrate in a 96-well microtiter plate format. An assay pH of 7.2 is used for standard assays (measured 405=9800 at pH 7.2).
Standard assays are conducted at room temperature in a total volume of 0.2 ml that contains Hepes buffer (50 mM, pH 7.2), NaCl (50 mM), EDTA (1 mM), DTT (1 mM), bovine serum albumin (1 mg/ml), pNPP (1 mM) and PTP1 (35 ng/ml). Compounds (2 μl of 10 mM solutions) are pipetted into wells of microtiter plates followed by 198 μl of premixed reaction mix (with PTP1 and pNPP added immediately before use). The rate of change in A405 is recorded for 60 min. Two wells on each plate contain DMSO controls and two wells contain sodium orthovanadate (1 mM) which inhibits PTP1-catalyzed hydrolysis of pNPP completely. Data are expressed as percent inhibition relative to the average of the DMSO controls measured on the same microtiter plate.

[1] = inhibition of pNPP-hydrolysis, compound concentration 1 μM, read-out: % Inhibition
[2] = inhibition of pNPP-hydrolysis, compound concentration 10 μM, read-out: % Inhibition
[3] = inhibition of pNPP-hydrolysis, compound concentration 100 μM, read-out: % Inhibition
[4] = Conc 1 uM, pNPP hydrolysis, Table 1, read-out: PTP1 Inhib % Inhib
[5] = Conc 10 uM, pNPP hydrolysis, Table 1, read-out: PTP1 Inhib % Inhib
[6] = Conc 100 uM, pNPP hydrolysis, Table 1, read-out: PTP1 Inhib % Inhib
[7] = Conc 1 uM, pNPP hydrolysis, Table 2, read-out: PTP1 Inhib PTP1N. % Inhib
[8] = Conc 10 uM, pNPP hydrolysis, Table 2, read-out: PTP1 Inhib PTP1N. % Inhib
[9] = Conc 100 uM, pNPP hydrolysis, Table 2, read-out: PTP1 Inhib PTP1N. % Inhib

Row | Structure (SMILES) | inhibition at 1 µM [4] [%] | inhibition at 10 µM [5] [%] | inhibition at 100 µM [6] [%] | further results
1 | O=C(O)COc1ccc(C[C@H](NC(=O)c2ccoc2)C(=O)NCCCCc2ccc(Cl)cc2)cc1C(=O)O [Example 154-26, 2-(carboxymethoxy)-5-[(2S)-3-{[4-(4-chlorophenyl)butyl]amino}-2-(3-furoylamino)-3-oxopropyl]benzoic acid] | – | – | – | inhibition at 1 µM [1]: 30%; inhibition at 10 µM [2]: 78%; inhibition at 100 µM [3]: 97%
2 | O=C(O)COc1ccc(C[C@H](NC(=O)c2ccc(Cl)cc2)C(=O)NCCCCc2ccc(Cl)cc2)cc1C(=O)O [Example 154-20, 2-(carboxymethoxy)-5-((2S)-2-[(4-chlorobenzoyl)amino]-3-{[4-(4-chlorophenyl)butyl]amino}-3-oxopropyl)benzoic acid] | – | – | – | inhibition at 1 µM [1]: 27%; inhibition at 10 µM [2]: 79%; inhibition at 100 µM [3]: 98%
3 | CCCCCNC(=O)C(C)(Cc1ccc(OC(C(=O)O)C(=O)O)cc1)NC(=O)CCC(=O)O (stereo not drawn) | – | – | – | inhibition at 1 µM [7]: 3%; inhibition at 10 µM [8]: 6%; inhibition at 100 µM [9]: 34%
4 | CCCCCNC(=O)[C@H](Cc1ccc(OC(C(=O)O)C(=O)O)cc1)NC(=O)C1CCCCC1C(=O)O (stereo partly drawn) | 3 | 13 | 62 | –
5 | CC(C)(C)OC(=O)N[C@@H](Cc1ccccc1)C(=O)N[C@@H](Cc1ccc(OCC(=O)O)c(C(=O)O)c1)C(=O)NCc1cccnc1 [Example 157-14, 5-{(2S)-2-({(2S)-2-[(tert-Butoxycarbonyl)amino]-3-phenylpropanoyl}amino)-3-oxo-3-[(3-pyridinylmethyl)amino]propyl}-2-(carboxymethoxy)benzoic Acid] | – | – | – | inhibition at 1 µM [1]: 20%; inhibition at 10 µM [2]: 67%; inhibition at 100 µM [3]: 94%
6 | O=C(O)COc1ccc(C[C@H](NC(=O)c2cccnc2)C(=O)NCCCCc2ccccc2)cc1C(=O)O [Example 154-11, 2-(carboxymethoxy)-5-{(2S)-3-oxo-3-[(4-phenylbutyl)amino]-2-[(3-pyridinylcarbonyl)amino]propyl}benzoic acid] | – | – | – | inhibition at 1 µM [1]: 22%; inhibition at 10 µM [2]: 73%; inhibition at 100 µM [3]: 95%
7 | CCCCCNC(=O)C(Cc1ccc(OC(COO)COO)cc1)NC(=O)NCC(=O)NCC(=O)O (stereo not drawn) | – | – | – | inhibition at 1 µM [7]: 12%; inhibition at 10 µM [8]: 56%; inhibition at 100 µM [9]: 93%
8 | CCCCCNC(=O)C(Cc1ccc(OC(COO)COO)cc1)NC(=O)[C@H](Cc1ccc(C(=O)c2ccccc2)cc1)NC(C)=O (stereo partly drawn) | – | – | – | inhibition at 1 µM [7]: 9%; inhibition at 10 µM [8]: 42%; inhibition at 100 µM [9]: 87%
9 | O=C(O)CCC(=O)N[C@@H](Cc1ccc(OC(C(=O)O)C(=O)O)cc1)C(=O)NCCc1ccc(O)cc1 | 1 | 7 | 43 | –
10 | COc1ccc(CCCCNC(=O)[C@H](Cc2ccc(OCC(=O)O)c(C(=O)O)c2)NC(=O)c2ccc(Cl)nc2)cc1 [Example 154-34, 2-(carboxymethoxy)-5-((2S)-2-{[(6-chloro-3-pyridinyl)carbonyl]amino}-3-{[4-(4-methoxyphenyl)butyl]amino}-3-oxopropyl)benzoic acid] | – | – | – | inhibition at 1 µM [1]: 26%; inhibition at 10 µM [2]: 77%; inhibition at 100 µM [3]: 96%
11 | CCCCCNC(=O)[C@H](Cc1ccc(OC(C(=O)O)C(=O)O)cc1)NC(=O)C1C2CCC(CC2)C1C(=O)O (stereo partly drawn) | 4 | 5 | 41 | –
12 | CCCCCNC(=O)[C@H](Cc1ccc(OC(C(=O)O)C(=O)O)cc1)NC(=O)COCC(=O)O | 3 | 12 | 53 | –
13 | CCCCCNC(=O)[C@H](Cc1ccc(OC(C(=O)O)C(=O)O)cc1)NC(=O)CCC(N)=O | 0 | 11 | 51 | –
14 | CCCCCNC(=O)[C@H](Cc1ccc(OC(C(=O)O)C(=O)O)cc1)NC(=O)CC(C)(C)CC(=O)O | 0 | 18 | 67 | –
15 | CCCCCNC(=O)C(Cc1ccc(OC(COO)COO)cc1)NC(=O)C(Cc1ccc(OCc2ccccc2)cc1)NC(=O)CCC(=O)O (stereo not drawn) | – | – | – | inhibition at 1 µM [7]: 30%; inhibition at 10 µM [8]: 80%; inhibition at 100 µM [9]: 98%
16 | O=C(O)CCC(=O)N[C@@H](Cc1ccc(OC(C(=O)O)C(=O)O)cc1)C(=O)NCCC(c1ccccc1)c1ccccc1 | 0 | 3 | 45 | –
17 | CCCCCNC(=O)C(Cc1ccc(OC(COO)COO)cc1)NC(=O)C(Cc1ccc(OCc2c(Cl)cccc2Cl)cc1)NC(=O)OC(C)(C)C (stereo not drawn) | – | – | – | inhibition at 1 µM [7]: 3%; inhibition at 10 µM [8]: 12%; inhibition at 100 µM [9]: 85%
18 | CCCCCNC(=O)[C@H](Cc1ccc(OC(C(=O)O)C(=O)O)cc1)NC(=O)C1C(C(=O)O)[C@@H]2CC[C@@H]1C2 (stereo partly drawn) | 0 | 4 | 37 | –
19 | O=C(O)CCC(=O)N[C@@H](Cc1ccc(OC(C(=O)O)C(=O)O)cc1)C(=O)NCCN1CCCCC1 | 0 | 2 | 23 | –
20 | [Na+].[Na+].[Na+].[O]=[V]([O-])([O-])[O-] [sodium orthovanadate, reference compound] | – | – | – | inhibits PTP1-catalyzed hydrolysis of pNPP (1 mM, control wells on each plate): completely
21 | CCCCCNC(=O)[C@H](Cc1ccc(CC(C(=O)O)C(=O)O)cc1)NC(=O)CCC(=O)O | 0 | 3 | 34 | –
22 | CCCCC/C=C/[C@H](Cc1ccc(OC(C(=O)O)C(=O)O)cc1)NC(=O)CCC(=O)O | – | – | – | inhibition at 1 µM [7]: 1%; inhibition at 10 µM [8]: 14%; inhibition at 100 µM [9]: 70%
23 | CC(C)(C)OC(=O)N[C@@H](Cc1ccccc1)C(=O)N[C@@H](Cc1ccc(OCC(=O)O)c(C(=O)O)c1)C(=O)NOCCCc1ccccc1 [Example 157-28, 5-{(2S)-2-({(2S)-2-[(tert-Butoxycarbonyl)amino]-3-phenylpropanoyl}amino)-3-oxo-3-[(3-phenylpropoxy)amino]propyl}-2-(carboxymethoxy)benzoic Acid] | – | – | – | Ki: 400 nM
24 | CCCCCNC(=O)[C@H](Cc1ccc(OCC(=O)O)c(C(=O)O)c1)NC(=O)[C@H](Cc1ccccc1)NC(=O)Oc1ccccc1 [Example 158, 2-(Carboxymethoxy)-5-[(2S)-3-oxo-3-(pentylamino)-2-({(2S)-2-[(phenoxycarbonyl)amino]-3-phenylpropanoyl}amino)propyl]benzoic Acid] | – | – | – | Ki: 870 nM; inhibition at 1 µM [1]: 43%; inhibition at 10 µM [2]: 85%; inhibition at 100 µM [3]: 97%

Second part, led by results:

Row | inhibition at 1 µM [4] [%] | inhibition at 10 µM [5] [%] | inhibition at 100 µM [6] [%] | Structure (SMILES) | further results
25 | 8 | 23 | 72 | O=C(O)CCC(=O)NC(Cc1ccc(OC(COO)COO)cc1)C(=O)NCCCc1ccccc1 (stereo not drawn) | –
26 | 4 | 15 | 66 | O=C(O)CCC(=O)NC(Cc1ccc(OC(COO)COO)cc1)C(=O)NCc1ccc(C(F)(F)F)cc1 (stereo not drawn) | –
27 | 3 | 14 | 56 | O=C(O)CCC(=O)NC(Cc1ccc(OC(COO)COO)cc1)C(=O)NCc1ccc(C(=O)O)cc1 (stereo not drawn) | –
28 | 8 | 34 | 81 | CCCCCNC(=O)C(Cc1ccc(OC(COO)COO)cc1)NC(=O)Nc1ccc(C(=O)O)cc1 (stereo not drawn) | –
29 | 0 | 1 | 34 | CCCCCNC(=O)C(Cc1ccc(OC(CCOO)COO)cc1)NC(=O)CCC(=O)O (stereo not drawn) | –
30 | 13 | 53 | 90 | CCCCCNC(=O)[C@H](Cc1ccc(OC(C(=O)O)C(=O)O)cc1)NC(=O)C(CC(=O)O)NC(=O)OC(C)(C)C (stereo partly drawn) | –
31 | 1 | 13 | 57 | O=C(O)CCC(=O)NC(Cc1ccc(OC(COO)COO)cc1)C(=O)NCCOc1ccccc1 (stereo not drawn) | –
32 | 7 | 18 | 61 | O=C(O)CCC(=O)NC(Cc1ccc(OC(COO)COO)cc1)C(=O)NCc1cccc2ccccc12 (stereo not drawn) | –
